{"source": "paper PMC10202051", "about": "“Molecular basis of differential HLA class I-restricted T cell recognition of a highly networked HIV peptide” (Nature Communications, 2023)", "system": "autologous B cells lysed by CTL Clone 3", "experiment": "Chromium release assay with QW9-B53 specific CTL clone C3", "assay_type": "cell-based, human", "details": "effector/target 1:1, technical replicate"}
{"sequence": "QATQEVKNW [QW9_S3T]", "values": [{"measurement": "lysis of autologous B cells", "setting": "experiment-1", "value": 6.79}, {"measurement": "lysis of autologous B cells", "setting": "experiment-2", "value": 6.64}, {"measurement": "lysis of autologous B cells", "setting": "experiment-3", "value": 6.63}, {"measurement": "lysis of autologous B cells", "setting": "experiment-4", "value": 6.38}, {"measurement": "lysis of autologous B cells", "setting": "experiment-5", "value": 6.72}, {"measurement": "lysis of autologous B cells", "setting": "experiment-6", "value": 7.02}, {"measurement": "lysis of autologous B cells", "setting": "experiment-7", "value": 6.68}, {"measurement": "lysis of autologous B cells", "setting": "experiment-8", "value": 6.3}]}
